A short description of assay [1]: microbe, parasite or virus in culture. The settings on record: Mycobacterium tuberculosis. In kind it is functional.
In assay [2] the target is T1, Heat shock factor protein 1 (Mus musculus, UniProt P38532).
T1 sequence (P38532 whole entry): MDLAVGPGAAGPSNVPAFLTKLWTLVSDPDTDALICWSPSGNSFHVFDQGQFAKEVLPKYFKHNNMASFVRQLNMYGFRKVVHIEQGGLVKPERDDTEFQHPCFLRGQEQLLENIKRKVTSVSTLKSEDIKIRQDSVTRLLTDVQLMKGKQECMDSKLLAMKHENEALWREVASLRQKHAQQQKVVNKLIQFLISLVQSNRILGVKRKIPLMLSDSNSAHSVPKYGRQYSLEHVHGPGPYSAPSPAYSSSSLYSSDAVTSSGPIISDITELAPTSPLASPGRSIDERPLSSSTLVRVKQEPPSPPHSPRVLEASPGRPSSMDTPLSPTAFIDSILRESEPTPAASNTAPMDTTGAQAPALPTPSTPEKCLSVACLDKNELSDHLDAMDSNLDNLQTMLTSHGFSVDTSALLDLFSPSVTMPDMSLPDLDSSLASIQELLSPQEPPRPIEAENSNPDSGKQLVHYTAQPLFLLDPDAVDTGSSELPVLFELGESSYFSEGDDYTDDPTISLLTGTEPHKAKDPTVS
Put plainly: HSF1 potentiators in luciferase reporter cells, confirmation, cell-based, NIH3T3, luminescence, dose retest (AID 435004).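 Note: stress induced by proteasome inhibitor MG132 added 30 min after compound; luciferase reporter driven by HSF1 response element in NIH3T3 cells; actives raise luminescence as potentiators of the MG132 stress response.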 Type of assay: functional.

Assay [3] concerns the target T2, Short transient receptor potential channel 4 (Mus musculus, UniProt Q9QUQ5).
T2 sequence (Q9QUQ5 whole entry): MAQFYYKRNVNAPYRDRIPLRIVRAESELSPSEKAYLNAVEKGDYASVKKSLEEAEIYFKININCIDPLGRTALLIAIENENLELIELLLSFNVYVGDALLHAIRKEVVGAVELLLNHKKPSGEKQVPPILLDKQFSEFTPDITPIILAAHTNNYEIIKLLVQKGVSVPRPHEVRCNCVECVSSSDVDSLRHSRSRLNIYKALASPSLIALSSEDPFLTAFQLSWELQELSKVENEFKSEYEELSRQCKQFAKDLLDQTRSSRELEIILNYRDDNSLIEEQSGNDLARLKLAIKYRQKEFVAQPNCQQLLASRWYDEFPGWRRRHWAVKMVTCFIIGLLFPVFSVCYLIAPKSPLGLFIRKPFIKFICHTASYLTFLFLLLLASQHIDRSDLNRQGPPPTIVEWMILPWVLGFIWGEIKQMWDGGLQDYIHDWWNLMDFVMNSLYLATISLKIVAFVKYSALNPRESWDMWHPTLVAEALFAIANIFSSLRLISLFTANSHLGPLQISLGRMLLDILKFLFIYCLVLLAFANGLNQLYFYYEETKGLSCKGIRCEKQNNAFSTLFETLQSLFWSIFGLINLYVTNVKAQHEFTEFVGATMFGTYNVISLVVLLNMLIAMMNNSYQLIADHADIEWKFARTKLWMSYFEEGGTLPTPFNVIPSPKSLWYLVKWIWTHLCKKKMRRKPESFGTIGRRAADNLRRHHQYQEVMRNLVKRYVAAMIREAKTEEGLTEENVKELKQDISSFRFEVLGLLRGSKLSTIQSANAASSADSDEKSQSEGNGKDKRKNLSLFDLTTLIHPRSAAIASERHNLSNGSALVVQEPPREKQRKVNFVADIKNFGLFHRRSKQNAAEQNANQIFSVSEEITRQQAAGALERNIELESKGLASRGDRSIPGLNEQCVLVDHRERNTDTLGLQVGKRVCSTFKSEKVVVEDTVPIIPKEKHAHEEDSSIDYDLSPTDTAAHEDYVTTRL
Put plainly: mouse TRPC4 channel inhibitors, dose response, cell-based, HEK293 TRPC4/mu-opioid, Fluo-4 calcium (AID 434942).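 Note: potency of inhibitors blocking the TRPC4 calcium response.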 In kind it is functional.

Assay [4] has as its target T2, Short transient receptor potential channel 4. Put plainly: mouse TRPC4 channel activators, dose response, cell-based, HEK293 TRPC4/mu-opioid, Fluo-4 calcium (AID 434937). Type of assay: functional.
Another assay can be described thus: cells. Type of assay: functional.
Assay [5] addresses T3, Fatty acid synthase (Homo sapiens, UniProt P49327). Put plainly: FAS thioesterase domain inhibitors, dose response, biochemical, endpoint fluorescence intensity, uHTS hits (AID 624327).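 Note: fluorescence from hydrolysis of an O-methyl fluorescein acyl ester substrate by the enzyme.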 In kind it is functional.
The target in assay [6] is T3, Fatty acid synthase. Put plainly: FAS thioesterase domain inhibitors, dose response, biochemical, kinetic fluorescence intensity (AID 624326).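 Note: rate of fluorescence rise from hydrolysis of a fluorogenic O-methyl fluorescein ester substrate.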 Type of assay: functional.
A further assay concerns the target Large T antigen (Simian virus 40, UniProt P03070). In kind it is functional, Betapolyomavirus macacae.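 Note: Confirmatory-stage PubChem screen for compounds that inhibit SV40 T antigen.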
The next assay has as its target T4, Streptokinase A (Streptococcus pyogenes serotype M1, UniProt P10520).
T4 sequence (P10520 whole entry): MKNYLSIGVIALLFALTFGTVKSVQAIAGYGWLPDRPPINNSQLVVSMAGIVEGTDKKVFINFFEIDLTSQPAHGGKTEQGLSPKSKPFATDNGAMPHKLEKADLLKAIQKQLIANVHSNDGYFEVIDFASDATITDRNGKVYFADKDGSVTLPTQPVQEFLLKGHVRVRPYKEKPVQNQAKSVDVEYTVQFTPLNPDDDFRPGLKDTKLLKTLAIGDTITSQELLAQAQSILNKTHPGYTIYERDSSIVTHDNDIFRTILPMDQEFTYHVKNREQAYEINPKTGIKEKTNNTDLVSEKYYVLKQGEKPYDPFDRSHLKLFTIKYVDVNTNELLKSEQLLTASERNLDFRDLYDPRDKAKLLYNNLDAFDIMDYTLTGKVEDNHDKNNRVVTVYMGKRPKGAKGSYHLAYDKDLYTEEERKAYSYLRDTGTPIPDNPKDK
Put plainly: S. pyogenes streptokinase expression inhibitors, potency, dose response, plasminogen activation absorbance, OD405 (AID 1914).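 Note: secreted streptokinase activity via plasminogen activation per viability signal from cell pellet.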 Type of assay: functional, Streptococcus pyogenes M1 GAS.

Assay [7] deals with Streptococcus sp. 'group A'. Put plainly: growth inhibition of control SK(-) GAS strain, dose response, counter-screen for streptokinase expression inhibitor project, luminescence, kanamycin, BacTiterGlo, confirmation (AID 1900). Type of assay: functional, organism-based. (In general: The purpose of a counterscreen is to sort out artefacts and off-target activity.)
For the next assay, the system named is Streptococcus. Put plainly: Group A Streptococcus viability loss, dose response, counter-screen for streptokinase expression inhibitor project, luminescence, BacTiterGlo (AID 1915).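 Note: potency for reduction of bacterial viability or growth.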 In kind it is functional, organism-based.
A further assay has as its target T5, Estrogen receptor (Homo sapiens, UniProt P03372).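 Note: potency for inhibiting coactivator peptide recruitment to the receptor.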
T5 sequence (P03372 whole entry): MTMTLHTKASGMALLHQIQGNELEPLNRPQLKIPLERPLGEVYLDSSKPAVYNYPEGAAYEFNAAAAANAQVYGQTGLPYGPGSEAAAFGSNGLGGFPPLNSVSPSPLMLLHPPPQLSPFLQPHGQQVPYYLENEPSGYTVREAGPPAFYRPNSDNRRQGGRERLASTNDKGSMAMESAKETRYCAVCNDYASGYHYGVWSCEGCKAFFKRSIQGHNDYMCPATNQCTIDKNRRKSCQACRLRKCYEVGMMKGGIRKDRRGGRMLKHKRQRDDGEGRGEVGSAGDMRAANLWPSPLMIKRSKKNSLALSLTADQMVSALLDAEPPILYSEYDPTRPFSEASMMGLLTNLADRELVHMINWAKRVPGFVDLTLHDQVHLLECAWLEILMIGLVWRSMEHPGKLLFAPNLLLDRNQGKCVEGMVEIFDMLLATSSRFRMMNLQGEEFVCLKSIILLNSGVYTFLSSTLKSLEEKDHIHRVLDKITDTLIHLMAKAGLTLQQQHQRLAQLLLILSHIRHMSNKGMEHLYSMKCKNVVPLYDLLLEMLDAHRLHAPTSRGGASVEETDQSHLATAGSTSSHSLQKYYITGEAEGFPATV

Another assay addresses Cytochrome P450 3A4 (Homo sapiens, UniProt P08684).
Another assay has as its target T6, Cytochrome P450 1A2 (Homo sapiens, UniProt P05177).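 Note: PubChem cytochrome P450 panel assay, CYP1A2 panel member.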
T6 sequence (P05177 whole entry): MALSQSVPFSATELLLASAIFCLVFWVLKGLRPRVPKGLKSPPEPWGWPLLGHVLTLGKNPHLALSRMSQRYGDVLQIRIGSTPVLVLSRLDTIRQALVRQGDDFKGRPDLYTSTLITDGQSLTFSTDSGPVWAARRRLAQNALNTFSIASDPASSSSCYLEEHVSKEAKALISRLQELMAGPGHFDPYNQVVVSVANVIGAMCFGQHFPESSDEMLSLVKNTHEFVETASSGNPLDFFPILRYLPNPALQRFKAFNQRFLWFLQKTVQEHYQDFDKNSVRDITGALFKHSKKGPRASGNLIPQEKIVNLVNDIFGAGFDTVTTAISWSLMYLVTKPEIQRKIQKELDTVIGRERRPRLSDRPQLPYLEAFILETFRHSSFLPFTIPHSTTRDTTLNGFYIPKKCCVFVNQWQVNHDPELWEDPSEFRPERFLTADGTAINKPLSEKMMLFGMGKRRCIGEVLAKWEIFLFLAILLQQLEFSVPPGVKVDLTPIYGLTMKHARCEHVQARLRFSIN

The target of a further assay is Cytochrome P450 2D6 (Homo sapiens, UniProt P10635).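 Note: CYP2D6 member of a cytochrome P450 panel assay.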
Chain of Cytochrome P450 2D6 (P10635 whole entry): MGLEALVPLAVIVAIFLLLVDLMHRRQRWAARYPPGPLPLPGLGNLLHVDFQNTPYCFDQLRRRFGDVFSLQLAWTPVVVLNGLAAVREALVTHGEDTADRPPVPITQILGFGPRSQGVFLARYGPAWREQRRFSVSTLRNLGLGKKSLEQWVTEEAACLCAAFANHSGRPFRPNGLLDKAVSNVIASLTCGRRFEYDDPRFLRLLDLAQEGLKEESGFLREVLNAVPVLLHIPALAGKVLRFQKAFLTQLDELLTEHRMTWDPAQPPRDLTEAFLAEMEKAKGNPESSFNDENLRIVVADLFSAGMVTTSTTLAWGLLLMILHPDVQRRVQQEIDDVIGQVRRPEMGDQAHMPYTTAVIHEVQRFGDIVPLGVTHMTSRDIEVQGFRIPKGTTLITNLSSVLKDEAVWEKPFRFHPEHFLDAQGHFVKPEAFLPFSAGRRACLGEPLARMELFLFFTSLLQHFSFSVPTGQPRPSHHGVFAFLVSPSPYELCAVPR

Calls of active or inactive are those of the source.

A word on the EC50: it is the concentration at which the effect is half-maximal. What is called IC50 is the concentration that gives 50% inhibition. The term AC50 denotes the concentration giving half of the maximal activity seen.

T3 sequence (P49327 whole entry, the tested form may be a part): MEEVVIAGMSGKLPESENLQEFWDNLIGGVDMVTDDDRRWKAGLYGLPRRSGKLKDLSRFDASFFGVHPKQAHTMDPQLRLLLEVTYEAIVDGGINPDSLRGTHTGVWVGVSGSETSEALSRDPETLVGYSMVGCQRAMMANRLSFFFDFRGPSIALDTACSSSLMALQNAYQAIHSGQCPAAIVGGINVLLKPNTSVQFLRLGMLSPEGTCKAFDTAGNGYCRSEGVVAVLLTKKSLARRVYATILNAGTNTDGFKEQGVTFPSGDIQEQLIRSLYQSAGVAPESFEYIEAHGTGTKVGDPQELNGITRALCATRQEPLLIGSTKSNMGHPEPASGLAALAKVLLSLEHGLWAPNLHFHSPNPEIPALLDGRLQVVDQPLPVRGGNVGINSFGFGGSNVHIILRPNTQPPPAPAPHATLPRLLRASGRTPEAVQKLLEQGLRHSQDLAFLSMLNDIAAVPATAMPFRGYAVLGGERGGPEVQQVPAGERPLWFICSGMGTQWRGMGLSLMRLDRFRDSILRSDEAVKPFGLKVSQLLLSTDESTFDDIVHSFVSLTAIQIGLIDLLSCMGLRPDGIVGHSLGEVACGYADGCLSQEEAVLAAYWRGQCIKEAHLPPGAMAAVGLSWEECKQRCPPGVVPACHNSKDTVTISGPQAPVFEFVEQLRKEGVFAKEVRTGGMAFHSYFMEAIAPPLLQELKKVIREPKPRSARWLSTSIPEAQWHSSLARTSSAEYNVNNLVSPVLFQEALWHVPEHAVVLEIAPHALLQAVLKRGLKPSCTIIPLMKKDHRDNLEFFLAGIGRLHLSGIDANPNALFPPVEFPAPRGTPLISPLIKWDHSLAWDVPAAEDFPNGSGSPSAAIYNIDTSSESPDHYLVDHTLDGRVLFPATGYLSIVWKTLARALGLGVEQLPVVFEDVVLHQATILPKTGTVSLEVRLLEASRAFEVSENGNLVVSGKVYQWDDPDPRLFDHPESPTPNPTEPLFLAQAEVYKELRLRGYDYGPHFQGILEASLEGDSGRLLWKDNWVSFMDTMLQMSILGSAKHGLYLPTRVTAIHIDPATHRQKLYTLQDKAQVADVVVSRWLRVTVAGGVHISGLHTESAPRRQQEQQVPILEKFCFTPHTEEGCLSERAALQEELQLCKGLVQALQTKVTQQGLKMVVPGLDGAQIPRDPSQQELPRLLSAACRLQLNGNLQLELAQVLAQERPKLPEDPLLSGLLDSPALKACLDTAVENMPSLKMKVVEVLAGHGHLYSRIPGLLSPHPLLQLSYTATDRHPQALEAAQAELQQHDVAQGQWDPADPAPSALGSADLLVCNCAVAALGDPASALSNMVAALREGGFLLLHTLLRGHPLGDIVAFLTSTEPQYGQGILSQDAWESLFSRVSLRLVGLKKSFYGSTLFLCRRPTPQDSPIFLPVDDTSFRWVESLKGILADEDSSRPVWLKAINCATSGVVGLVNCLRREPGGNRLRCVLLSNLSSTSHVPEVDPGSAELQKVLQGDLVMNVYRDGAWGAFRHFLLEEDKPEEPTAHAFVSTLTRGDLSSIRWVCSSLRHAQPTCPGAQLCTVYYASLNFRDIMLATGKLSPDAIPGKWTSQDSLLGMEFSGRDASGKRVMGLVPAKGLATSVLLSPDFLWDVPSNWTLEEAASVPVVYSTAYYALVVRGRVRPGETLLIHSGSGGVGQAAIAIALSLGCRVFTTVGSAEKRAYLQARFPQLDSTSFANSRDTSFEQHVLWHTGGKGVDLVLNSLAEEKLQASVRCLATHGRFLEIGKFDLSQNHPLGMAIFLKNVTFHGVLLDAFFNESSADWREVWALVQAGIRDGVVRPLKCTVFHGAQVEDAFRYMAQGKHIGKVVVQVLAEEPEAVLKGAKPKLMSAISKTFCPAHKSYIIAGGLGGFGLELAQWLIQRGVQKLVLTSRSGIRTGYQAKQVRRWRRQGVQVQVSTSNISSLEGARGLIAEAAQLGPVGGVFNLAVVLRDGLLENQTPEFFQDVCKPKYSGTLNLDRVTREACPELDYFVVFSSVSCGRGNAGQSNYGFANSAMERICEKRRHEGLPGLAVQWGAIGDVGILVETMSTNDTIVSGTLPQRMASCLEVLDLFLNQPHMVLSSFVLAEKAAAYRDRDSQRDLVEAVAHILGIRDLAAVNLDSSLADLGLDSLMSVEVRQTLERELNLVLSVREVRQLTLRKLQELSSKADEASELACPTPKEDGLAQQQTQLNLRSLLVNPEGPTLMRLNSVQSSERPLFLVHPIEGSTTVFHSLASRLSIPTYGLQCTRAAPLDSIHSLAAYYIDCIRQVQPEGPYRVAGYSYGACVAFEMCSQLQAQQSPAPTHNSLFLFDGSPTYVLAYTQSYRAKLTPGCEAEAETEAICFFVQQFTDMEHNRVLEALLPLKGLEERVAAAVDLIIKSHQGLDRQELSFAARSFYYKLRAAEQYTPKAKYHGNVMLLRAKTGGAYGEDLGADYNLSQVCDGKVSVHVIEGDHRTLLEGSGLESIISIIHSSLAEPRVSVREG
Chain of Large T antigen (P03070 whole entry): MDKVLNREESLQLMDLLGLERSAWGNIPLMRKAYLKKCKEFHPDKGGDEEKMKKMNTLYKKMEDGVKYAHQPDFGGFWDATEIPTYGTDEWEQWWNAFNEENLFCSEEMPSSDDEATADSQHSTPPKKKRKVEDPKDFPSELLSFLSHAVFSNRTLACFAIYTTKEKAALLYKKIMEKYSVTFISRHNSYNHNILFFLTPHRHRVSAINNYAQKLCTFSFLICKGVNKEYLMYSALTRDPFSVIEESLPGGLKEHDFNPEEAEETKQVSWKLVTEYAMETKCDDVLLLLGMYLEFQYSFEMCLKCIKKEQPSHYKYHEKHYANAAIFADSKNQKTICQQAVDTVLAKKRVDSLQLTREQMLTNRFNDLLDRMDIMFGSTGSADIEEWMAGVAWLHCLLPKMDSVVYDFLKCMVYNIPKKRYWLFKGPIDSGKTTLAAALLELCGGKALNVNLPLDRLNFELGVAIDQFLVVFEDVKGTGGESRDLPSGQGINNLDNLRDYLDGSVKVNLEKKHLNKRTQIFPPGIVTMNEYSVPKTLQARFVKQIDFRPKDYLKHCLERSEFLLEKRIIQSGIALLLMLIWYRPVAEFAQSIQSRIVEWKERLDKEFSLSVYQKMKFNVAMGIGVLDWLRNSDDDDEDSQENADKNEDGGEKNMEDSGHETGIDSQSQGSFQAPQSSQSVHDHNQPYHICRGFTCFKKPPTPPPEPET
Chain of Cytochrome P450 3A4 (P08684 whole entry): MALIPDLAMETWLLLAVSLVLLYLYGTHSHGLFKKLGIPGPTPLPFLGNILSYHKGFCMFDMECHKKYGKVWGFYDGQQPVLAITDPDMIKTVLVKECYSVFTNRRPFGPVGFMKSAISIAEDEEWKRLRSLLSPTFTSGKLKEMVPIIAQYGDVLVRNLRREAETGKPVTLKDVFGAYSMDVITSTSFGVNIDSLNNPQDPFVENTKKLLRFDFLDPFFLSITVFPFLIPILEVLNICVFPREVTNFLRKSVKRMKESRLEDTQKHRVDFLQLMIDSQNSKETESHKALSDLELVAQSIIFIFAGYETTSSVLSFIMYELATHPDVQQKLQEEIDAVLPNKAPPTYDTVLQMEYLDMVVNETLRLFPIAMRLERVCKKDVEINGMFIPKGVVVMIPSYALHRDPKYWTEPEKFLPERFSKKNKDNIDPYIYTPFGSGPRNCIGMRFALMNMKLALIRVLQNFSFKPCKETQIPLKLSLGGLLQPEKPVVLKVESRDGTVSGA

With `CCc1ccc(NC(=O)CSc2nc3nnc(C)c-3c(N)n2-c2cccc(OC)c2)cc1`, in [1], the CC50 was 22.6 µM (active). Also, in assay [2], the EC50 was 118 µM (active).

Consider `N#Cc1c(N)sc2c1CCCCCC2`, for which, in assay [3], the EC50 was 3.76 µM (active). For the compound `CCCN(C(=O)CCOc1ccc(C(C)(C)C)cc1)c1c(N)n(Cc2ccccc2)c(=O)[nH]c1=O`, the CC50 in assay [1] was > 40 µM (active). On to `Cc1cccc(N(C(=O)c2snc(C(N)=O)c2N)C(C(=O)NCC2CCCO2)c2ccc3ncccc3c2)c1` (stereo unspecified), for which the EC50 in assay [3] is 7.5 µM (active). Turning to `CN1CCCC(OC(=O)c2cc(Cl)cc(Cl)c2)C1` (stereo unspecified), the EC50 in assay [4] is 188 nM (active). For the compound `O=C(COc1ccc(Br)cc1)Nc1ccc([N+](=O)[O-])cn1`, the IC50 in the assay “cells” was 26.3 µM (active). As for `CCOC(=O)c1c(NC(=O)C(C)Sc2nnc(C)c(O)n2)sc2c1CCCC2` (stereo unspecified), the concentration for a half-maximal effect (EC50) in assay [3] is 0.237 µM (active).

For the compound `O=C(COC(=O)CCc1c[nH]c2ccccc12)NCc1ccc(Cl)cc1`, the IC50 in “cells” is 11.8 µM (active). Regarding `Cc1ccc(-c2nn(-c3cccc(F)c3)cc2CNCc2cccnc2)o1`, the EC50 in [4] is 2660 nM (active).

In the case of `COc1ccc(C(=O)OCC(=O)NCCCc2ccccc2)cc1[N+](=O)[O-]`, the results for the IC50 at Fatty acid synthase [5] and on Fatty acid synthase [6] were 4.1 µM (active) and 4.84 µM (active), respectively. For `CC(Nc1ccc(N2CCOCC2)cc1)C(=O)N1c2ccccc2CC1C` (stereo unspecified), the IC50 on Large T antigen is 21.1 µM (active). `CC1Cc2ccccc2N1C(=S)NC(=O)c1ccc(Cl)cc1Cl` (stereo unspecified): the EC50 at Streptokinase A was > 150 µM (not active); in assay [7] it was 5.96 µM (active); in the assay on Streptococcus it was 13.7 µM (active). The CC50 in assay [1] was 33 µM (active). As for `CC1(C)CC(NC(=O)c2cc(COc3cccc(C(F)(F)F)c3)on2)CCO1` (stereo unspecified), the EC50 in [3] was 1.88 µM (active). As for `C=CCOC(=O)COc1ccc2c(C)c(CC)c(=O)oc2c1`, the IC50 at Fatty acid synthase [5] was 5.57 µM (active); on Fatty acid synthase [6], 3.08 µM (active). With `O=C(COC(=O)c1ccccc1Oc1ccccc1)NCc1ccco1`, the IC50 on Estrogen receptor is 17.9 µM (active). `CC(C)(C)c1cc(Br)c(O)c(N=Nc2ccc(S(=O)(=O)N3CCOCC3)cc2)c1`: the IC50 at Fatty acid synthase [5] is 3.8 µM (active); on Fatty acid synthase [6] it was 2.66 µM (active). Take `COc1cc(Cl)ccc1NC(=O)COc1ccccc1C(=O)N1CCN(c2ccc(O)cc2)CC1`: on Large T antigen, the IC50 was 13.4 µM (active). As to `CN1CCC(=O)N([C@H](CSc2ccc(Br)cc2)Cc2ccccc2)CC1`, in [4], the half-maximal effective concentration (EC50) was 4730 nM (active). Regarding `COc1ccc(OC)c(N2Cc3ccccc3C2=N)c1`, in assay [3], the EC50 is 3.35 µM (active). On to `CN(C)C(CN=C(S)Nc1ccc(Cl)cc1)c1cccnc1` (stereo unspecified), for which, in assay [4], the EC50 was 14.7 nM (active).

On to `O=C1NCC(O)=C1/C=N/c1ccccc1O`, for which, in [1], the CC50 is > 40 µM (active). Further, in the assay “cells”, the IC50 is 4.46 µM (active). `COc1ccc(C(=O)N/C(=C\c2cn(S(=O)(=O)N(C)C)c3ccccc23)C(=O)N2CCCC2)cc1`: the IC50 at Fatty acid synthase [5] is 1.47 µM (active); on Fatty acid synthase [6], 4.3 µM (active). On to `COCCNC(=O)c1c(N)n(/N=C/c2cccs2)c2nc3ccccc3nc12`, for which the IC50 at Estrogen receptor is 11.2 µM (active). On to `CC(C)c1ccc(/C=N/NC(=O)CN(c2cccc(Cl)c2Cl)S(C)(=O)=O)cc1`, for which the results for the AC50 at Cytochrome P450 3A4, on Cytochrome P450 1A2 and on Cytochrome P450 2D6 were 28.2 µM (inconclusive), 25.1 µM (inconclusive) and 28.2 µM (inconclusive), respectively. Moreover, the IC50 on Fatty acid synthase [5] is 10.4 µM (active); on Fatty acid synthase [6] it was 7.36 µM (active). `CCOc1cc(/C=N\NC(=O)Cn2nnc3ccccc32)ccc1O`: the IC50 at Large T antigen is 13.1 µM (active).

In the case of `O=C(/C=C/c1ccc(O)c(O)c1)O[C@@H]1C[C@](O)(C(=O)O)C[C@@H](O)[C@H]1O` [CHLOROGENIC ACID], on Large T antigen, the IC50 is 14.7 µM (active). For the compound `CCCCCN(CCCCC)C(=O)C(CCC(=O)O)NC(=O)c1ccc(Cl)c(Cl)c1` (stereo unspecified) [LORGLUMIDE SODIUM], the results for the IC50 at Fatty acid synthase [5] and on Fatty acid synthase [6] were 5.09 µM (active) and 5.31 µM (active), respectively.

The values are drawn from ChEMBL document CHEMBL1201862, “PubChem BioAssay data set” (2004).
